Laboratory results: patent publication US12600714B2, “Substituted pyrazinecarboxamide compounds for treating diseases related to EGFR mutation” (WIGEN BIOMEDICINE TECHNOLOGY (SHANGHAI) CO., LTD., priority 2020, dated 2026)

Experiments:
[1] = biological target: Ba/F3 (EGFR^del19/T790M/C797S) triple-mutant cells (Homo sapiens, UniProt P00533, T790M/C797S, cells depend on it, form not given); experiment: Antiproliferative activity against Ba/F3 (EGFR del19/T790M/C797S) triple-mutant cells, Cell Titer Glow; assay type: cell-based; details: three days after addition of compounds; read-out: Antiproliferative activity BaF3(EGFR^del19/T790M/C797S) IC50
Method: (§1) Antiproliferative Activity of the Compounds Disclosed Herein Against Ba/F3 (EGFR^del19/T790M/C797S) Triple-Mutant Cells and A431 (EGFR WT) Cells
(§2) • 3000 Ba/F3 cells carrying EGFR (del19/T790M/C797S) or 2000 A431 cells were seeded in a 384-well plate. After one day, serially diluted compounds were added (up to 500 nM for Ba/F3 cells and up to 10 μM for A431 cells). Three days after the addition of the compounds, Cell Titer Glow was added to evaluate cell growth and the percentage cell growth inhibition by the compounds and the IC50 values were calculated.

EGFR (del19/T790M/C797S) = experiment: HTRF inhibitory activity assay against EGFR (del19/T790M/C797S) enzyme; assay type: biochemical
Outline: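 Wild-type or mutant EGFR preincubated with serially diluted compound 10 min at 28 °C, then reacted 40 min at room temperature with biotinylated TK substrate and ATP. Phosphorylation detected by HTRF (Eu-cryptate anti-TK antibody, streptavidin-XL665, 60 min), 665/615 nm ratio; % inhibition and IC50 vs control.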

A431 (EGFR WT) cells = experiment: Antiproliferative activity against A431 (EGFR WT) cells, Cell Titer Glow; assay type: cell-based; details: Homo sapiens, A-431, 72 h; three days after addition of compounds; read-out: Antiproliferative activity A431 wild-type (WT) IC50
Method: as §1, §2

Chain of Ba/F3 (EGFR^del19/T790M/C797S) triple-mutant cells (P00533 with tags, fused parts or gaps DEL746-750/T790M/C797S, form open): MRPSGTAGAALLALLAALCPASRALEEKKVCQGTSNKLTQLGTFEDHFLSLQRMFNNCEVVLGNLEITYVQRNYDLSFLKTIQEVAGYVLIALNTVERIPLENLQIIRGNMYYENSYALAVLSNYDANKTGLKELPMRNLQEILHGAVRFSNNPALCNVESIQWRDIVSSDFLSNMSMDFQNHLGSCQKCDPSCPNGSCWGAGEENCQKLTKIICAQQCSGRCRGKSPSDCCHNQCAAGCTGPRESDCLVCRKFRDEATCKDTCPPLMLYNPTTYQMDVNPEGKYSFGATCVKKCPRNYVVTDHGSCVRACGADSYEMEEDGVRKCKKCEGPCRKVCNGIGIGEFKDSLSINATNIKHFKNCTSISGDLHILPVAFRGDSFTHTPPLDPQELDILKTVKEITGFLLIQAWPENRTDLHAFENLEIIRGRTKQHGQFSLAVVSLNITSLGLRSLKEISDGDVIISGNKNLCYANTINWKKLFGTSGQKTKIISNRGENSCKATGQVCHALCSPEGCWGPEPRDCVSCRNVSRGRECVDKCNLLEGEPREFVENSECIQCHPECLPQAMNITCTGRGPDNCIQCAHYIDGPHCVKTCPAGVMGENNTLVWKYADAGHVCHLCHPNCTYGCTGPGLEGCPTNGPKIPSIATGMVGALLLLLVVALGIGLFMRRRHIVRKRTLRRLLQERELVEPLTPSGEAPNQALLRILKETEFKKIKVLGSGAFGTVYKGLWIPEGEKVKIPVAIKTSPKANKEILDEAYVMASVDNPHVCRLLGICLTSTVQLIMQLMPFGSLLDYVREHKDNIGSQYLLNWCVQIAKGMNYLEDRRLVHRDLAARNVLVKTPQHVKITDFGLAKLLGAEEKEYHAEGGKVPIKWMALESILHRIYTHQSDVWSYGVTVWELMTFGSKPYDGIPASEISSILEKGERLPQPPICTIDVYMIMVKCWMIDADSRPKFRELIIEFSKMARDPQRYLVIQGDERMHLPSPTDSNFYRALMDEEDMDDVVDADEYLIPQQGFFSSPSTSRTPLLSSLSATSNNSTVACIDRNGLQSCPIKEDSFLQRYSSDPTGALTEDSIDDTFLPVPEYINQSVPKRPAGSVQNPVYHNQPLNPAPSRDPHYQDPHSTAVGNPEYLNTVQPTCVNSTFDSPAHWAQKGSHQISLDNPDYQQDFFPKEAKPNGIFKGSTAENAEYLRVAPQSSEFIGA

Structure (SMILES)	GI50 [1] [nM]	EGFR (del19/T790M/C797S) inhibition (%) (0.3 nM compound) (EGFR (del19/T790M/C797S))	IC50 (A431 (EGFR WT) cells) [nM]
CN1CCN(C2CCN(c3ccc(Nc4nc(NC5CCOCC5)c(-c5cccnc5)nc4C(N)=O)cc3)CC2)CC1 [compound 37]	48	+ (+ indicates an inhibition less than or equal to 20%)	> 2000
COc1cc(Nc2nc(NC3CCOCC3)c(-c3cc[nH]n3)nc2C(N)=O)ccc1N1CCC(N2CCN(C)CC2)CC1 [compound 417]	57		190
Cc1cc(-c2nc(C(N)=O)c(Nc3ccc(N4CCC(N5CCN(C)CC5)CC4)cc3)nc2NC2CCOCC2)ccn1 [compound 108]	23	+++ (+++ indicates an inhibition greater than 50%.)	190
CN1CCN(C2CCN(c3ccc(Nc4nc(N[C@H]5C[C@H](O)C5)c(-c5ccccc5)nc4C(N)=O)cc3)CC2)CC1 [compound 32]	26	+++ (+++ indicates an inhibition greater than 50%.)	190
CN1CCN(C2CCN(c3ccc(Nc4nc(NC5CCOCC5)c(-c5ccccc5N(C)C)nc4C(N)=O)cc3)CC2)CC1 [compound 85]	357		1500
CN1CCN(C2CCN(c3ccc(Nc4nc(NC5CCOCC5)c(-c5ccc(O)cc5)nc4C(N)=O)cc3)CC2)CC1 [compound 96]	> 100	++ (++ indicates an inhibition from 20% to 50%)	1600
Cc1cnccc1-c1nc(C(N)=O)c(Nc2ccc(N3CCC(N4CCN(C)CC4)CC3)cc2)nc1NC1CCOCC1 [compound 74]	> 100		2100
CCc1cc(Nc2nc(NC3CCOCC3)c(-c3ccncc3)nc2C(N)=O)ccc1N1CCC(N2CCN(C)CC2)CC1 [compound 161]	54		1200
COc1cc(Nc2nc(NC3CC4(COC4)C3)c(-c3cc[nH]n3)nc2C(N)=O)ccc1N1CCC(N2CCN(C)CC2)CC1 [compound 504]	98		330
Cc1cc(Nc2nc(NC3CCOCC3)c(-c3ccncc3)nc2C(N)=O)ccc1N1CCN(C)CC1 [compound 148]	68		1700
CN1CCN(C2CCN(c3ccc(Nc4nc(NC5CCOCC5)c(-c5cncc6[nH]ccc56)nc4C(N)=O)cc3)CC2)CC1 [compound 538]	35		290
CN1CCN(C2CCN(c3ccc(Nc4nc(NC5CCOCC5)c(-c5cccc(N(C)C)c5)nc4C(N)=O)cc3)CC2)CC1 [compound 86]	21		1700
Cc1cc(Nc2nc(NC3CCOCC3)c(-c3ccccn3)nc2C(N)=O)ccc1N1CCC(N2CCN(C)CC2)CC1 [compound 213]	226		> 10000
CCc1cc(Nc2nc(NC3CCOCC3)c(-c3ccnc4[nH]ccc34)nc2C(N)=O)ccc1N1CCC(N2CCN(C)CC2)CC1 [compound 516]	42		350
CN1CCN(C2CCN(c3ccc(Nc4nc(NC5CCOCC5)c(-c5cncs5)nc4C(N)=O)cc3)CC2)CC1 [compound 88]	52		280
CN1CCN(c2ccc(Nc3nc(NC4CCOCC4)c(-c4cc[nH]n4)nc3C(N)=O)cc2)CC1 [compound 174]	51		1000
CN1CCN(C2CCN(c3ccc(Nc4nc(NC5CCOCC5)c(-c5cccc6[nH]cnc56)nc4C(N)=O)cc3)CC2)CC1 [compound 540]	48		1200
CCc1cc(Nc2nc(NC3CCOCC3)c(-c3cccc4[nH]ccc34)nc2C(N)=O)ccc1N1CCC(N2CCN(C)CC2)CC1 [compound 515]	42		520
CO[C@H]1CC[C@H](Nc2nc(Nc3ccc(N4CCC(N5CCN(C)CC5)CC4)cc3)c(C(N)=O)nc2-c2ccccc2)CC1 [compound 115]	214		2000

Structure (SMILES)	GI50 [1] [nM]	EGFR (del19/T790M/C797S) inhibition (%) (0.3 nM compound) (EGFR (del19/T790M/C797S))	IC50 (A431 (EGFR WT) cells) [nM]
CCc1cc(Nc2nc(NC3CCOCC3)c(-c3cc[nH]n3)nc2C(N)=O)ccc1N1CCC(N2CCN(C)CC2)CC1 [compound 184]	18		980
CN1CCN(C2CCN(c3ccc(Nc4nc(NC5CCC(O)C5)c(-c5ccccc5)nc4C(N)=O)cc3)CC2)CC1 (stereo not drawn) [compound 135, 5-((3-hydroxycyclopentyl)amino)-3-((4-(4-(4-methylpiperazin-1-yl)piperidin-1-yl)phenyl)amino)-6-phenylpyrazine-2-carboxamide]	40		340
CN1CCN(C2CCN(c3ccc(Nc4nc(O[C@@H]5CCN(CCO)C5)c(-c5ccccc5)nc4C(N)=O)cc3)CC2)CC1 [compound 131]	> 100		> 10000
Cc1cc(Nc2nc(NC3CCOCC3)c(-c3cccc4[nH]ccc34)nc2C(N)=O)ccc1N1CCC(N2CCN(C)CC2)CC1 [compound 513]	57		560
CN1CCN(C2CCN(c3ccc(Nc4nc(NC5CCOCC5)c(-c5cc[nH]n5)nc4C(N)=O)cc3C3CC3)CC2)CC1 [compound 421]	36		530
Cc1cc(Nc2nc(NC3CCOCC3)c(-c3ccnc4[nH]ccc34)nc2C(N)=O)ccc1N1CCC(N2CCN(C)CC2)CC1 [compound 514]	48		250
CC(C)c1cc(Nc2nc(NC3CCOCC3)c(-c3cc[nH]n3)nc2C(N)=O)ccc1N1CCC(N2CCN(C)CC2)CC1 [compound 420]	32		3700
CN1CCN(C2CCN(c3ccc(Nc4nc(NC5CCOCC5)c(-c5ccccc5F)nc4C(N)=O)cc3)CC2)CC1 [compound 62]		+ (+ indicates an inhibition less than or equal to 20%)	
CN1CCN(C2CCN(c3ccc(Nc4nc(NC5CCOCC5)c(-c5ccccc5NS(C)(=O)=O)nc4C(N)=O)cc3)CC2)CC1 [compound 107]		+ (+ indicates an inhibition less than or equal to 20%)	
CN1CCN(C2CCN(c3ccc(Nc4nc(NC5CC6(COC6)C5)c(-c5cc[nH]n5)nc4C(N)=O)cc3F)CC2)CC1 [compound 628]		++ (++ indicates an inhibition from 20% to 50%)	
CN1CCN(C2CCN(c3ccc(Nc4nc(NC5CC5)c(-c5cc[nH]n5)nc4C(N)=O)cc3F)CC2)CC1 [compound 626]		+++ (+++ indicates an inhibition greater than 50%.)	
CN1CCC(Nc2nc(Nc3ccc(N4CCC(N5CCN(C)CC5)CC4)cc3)c(C(N)=O)nc2-c2ccccc2)CC1 [compound 7]		+ (+ indicates an inhibition less than or equal to 20%)	
CN1CCN(C2CCN(c3ccc(Nc4nc(NC5CCCC5)c(-c5ccncc5)nc4C(N)=O)cc3F)CC2)CC1 [compound 641]		+++ (+++ indicates an inhibition greater than 50%.)	
CN1CCN(C2CCN(c3ccc(Nc4nc(N[C@@H]5CCC[C@H](O)C5)c(-c5ccccc5)nc4C(N)=O)cc3)CC2)CC1 [compound 141]	27		230
CN1CCN(C2CCN(c3ccc(Nc4nc(NC5CCOCC5)c(-c5cccc(S(C)(=O)=O)c5)nc4C(N)=O)cc3)CC2)CC1 [compound 44]		+ (+ indicates an inhibition less than or equal to 20%)	
CN1CCN(C2CCN(c3ccc(Nc4nc(NC5CCCC5)c(-c5ccncc5)nc4C(N)=O)cc3)CC2)CC1 [compound 640]		+++ (+++ indicates an inhibition greater than 50%.)	
CN1CCN(C2CCN(c3ccc(Nc4nc(N[C@H]5CC[C@H](O)C5)c(-c5ccccc5)nc4C(N)=O)cc3)CC2)CC1 [compound 138, 5-(((1S,3S)-3-hydroxycyclopentyl)amino)-3-((4-(4-(4-methylpiperazin-1-yl)piperidin-1-yl)phenyl)amino)-6-phenylpyrazine-2-carboxamide]		++ (++ indicates an inhibition from 20% to 50%)	
CN1CCN(C2CCN(c3ccc(Nc4nc(NC5CCOCC5)c(-c5ccc(S(C)(=O)=O)cc5)nc4C(N)=O)cc3)CC2)CC1 [compound 46]		+ (+ indicates an inhibition less than or equal to 20%)	
CN1CCN(C2CCN(c3ccc(Nc4nc(N[C@H]5CC[C@@H](O)C5)c(-c5ccccc5)nc4C(N)=O)cc3)CC2)CC1 [compound 139, 5-(((1S,3R)-3-hydroxycyclopentyl)amino)-3-((4-(4-(4-methylpiperazin-1-yl)piperidin-1-yl)phenyl)amino)-6-phenylpyrazine-2-carboxamide]		++ (++ indicates an inhibition from 20% to 50%)	
